Experimental data taken from patent publication US20250230138A1, “COMPOUNDS HAVING A T-STRUCTURE FORMED BY AT LEAST FOUR CYCLES FOR USE IN THE TREATMENT OF CANCER AND OTHER INDICATIONS” (TheRas, Inc., priority 2022, published 2025).
Read-outs that look alike come from different tables or passages of the source.

What was measured:
[1] = biological target: Cys242 in human PIK3CA (157-299) (Homo sapiens (Human), UniProt P42336); assay: Covalent modification assay using MALDI-TOF MS; assay type: biochemical; conditions: 4 h reaction time point
Cys242 in human PIK3CA (157-299), sequence (P42336 157-299): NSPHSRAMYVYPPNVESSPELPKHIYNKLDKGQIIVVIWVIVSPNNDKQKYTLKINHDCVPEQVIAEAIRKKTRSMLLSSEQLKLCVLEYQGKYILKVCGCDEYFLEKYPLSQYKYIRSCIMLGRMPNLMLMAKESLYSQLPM
Procedure, shortened: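 Covalent adduct formation was read by linear-mode MALDI-TOF with sinapinic acid matrix, reported as modified-protein peak height divided by total protein peak heights. Reactions held PIK3CA (157-299) at 1 or 3.33 μM in HEPES/NaCl/MgCl2 buffer, pH 7.3, sampled after 15 min to 4 h at room temperature.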

pAKT in BT474 cells = assay: Cell-based pAKT HTRF assay in BT474 cells; conditions: BT474 cells, 4 hr incubation, read-out: pAKT inhibition IC50 in BT474 cells
Procedure, shortened: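 Cells grown in DMEM with 10% FBS were exposed to compounds for 4 hr in 0.25% DMSO, using a 9-point, 3-fold dilution series that starts at 3 μM. Lysates were incubated with d2 and Eu Cryptate antibodies for 4–24 h at room temperature, and HTRF was read at 615 nm emission.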

[2] = 3.33 μM protein target, 1:7.5 protein to compound ratio (compounds 1-852)
[3] = 1 μM protein target, 1:5 protein to compound ratio (compounds 853-1279)
[4] = Homo sapiens, BT-474, Compounds 10-999

Compound	% of modification [1, 2]	IC50 (pAKT in BT474 cells; Compounds 10-999)	% of modification [1, 3]	IC50 (pAKT in BT474 cells; [4])	IC50 (pAKT in BT474 cells; Compounds 1000-1279)
C=CC(=O)N1CCc2nc(-c3nc(-c4ccc5c(c4)CCNC5)c4ccoc4c3-c3ccc(F)cc3OCCOC)sc2C1 [Compound 417]	A (percent of modification of PIK3CA protein ≥75%)	< 100 nM	–	–	–
C=CC(=O)N1CCn2nc(-c3nc(-c4ccc5nncn5c4)c4ccsc4c3-c3c(F)cc(F)cc3OCCO)cc2[C@H]1C [Compound 892]	–	< 100 nM	A (percent of modification of PIK3CA protein ≥75%)	–	–
C=CC(=O)N1CCc2nc(-c3nc(-c4ccc(=O)n(C)c4)c4ccsc4c3-c3ccc(F)cc3OCCOC)sc2C1 [Compound 164]	A (percent of modification of PIK3CA protein ≥75%)	< 100 nM	–	–	–
C=C(F)C(=O)N1CCn2nc(-c3nc(-c4ccc(=O)n(C)c4)c4ccsc4c3-c3ccc(F)cc3OCCOC)cc2C1 [Compound 278]	B (50%<percent of modification <75%)	100 to 1000 nM	–	–	–
C=CC(=O)N1CCn2nc(-c3nc(-c4ccc5c(=O)n(C)ncc5c4)c4ccsc4c3-c3c(F)cc(F)cc3OCCOC)cc2C1C (stereo not drawn) [Compound 914]	–	< 100 nM	A (percent of modification of PIK3CA protein ≥75%)	–	–
C=CC(=O)N1CCn2nc(-c3nc(-c4cnn(C)c4)c4ccsc4c3-c3c(F)cc(F)cc3OC(C)C)cc2C1 [Compound 289]	A (percent of modification of PIK3CA protein ≥75%)	< 100 nM	–	–	–
C=CC(=O)N1Cc2cc(-c3nc(-c4ccc5c(c4)CCN(C)C5)c4ccsc4c3-c3c(F)cc(F)cc3OC)nn2[C@@H](C)C1 [Compound 562]	C (25%≤percent of modification <50%)	100 to 1000 nM	–	–	–
C=CC(=O)N1CC(n2cc(-c3nc(-c4ccc5c(c4)CNC(=O)C5)c4ccsc4c3-c3cccnc3OC)cn2)C1 [Compound 84, 7-[7-(2-methoxy-3-pyridyl)-6-[1-(1-prop-2-enoylazetidin-3-yl)pyrazol-4-yl]thieno[3,2-c]pyridin-4-yl]-2,4-dihydro-1H-isoquinolin-3-one]	B (50%<percent of modification <75%)	–	–	1000 to 3000 nM	–
C=CC(=O)N1CCc2nc(-c3nc(-c4ccc(=O)[nH]c4)c4ccsc4c3-c3ccc(F)cc3OCCOC)sc2C1 [Compound 131]	A (percent of modification of PIK3CA protein ≥75%)	< 100 nM	–	–	–
C=CC(=O)N1CCn2nc(-c3nc(-c4cnc5c(c4)CN(C)C5=O)c4ccsc4c3-c3c(F)cc(F)cc3OCCOC)cc2C1C (stereo not drawn) [Compound 553]	A (percent of modification of PIK3CA protein ≥75%)	< 100 nM	–	–	–
C=CC(=O)N1CCc2nc(-c3nc(-c4ccc5c(c4)CCC5N)c4ccsc4c3-c3ccc(F)cc3OCCOC)sc2C1 (stereo not drawn) [Compound 160]	A (percent of modification of PIK3CA protein ≥75%)	< 100 nM	–	–	–
C=CC(=O)N1CCc2nc(-c3nc(-c4cnn(CC(F)F)c4)c4ccsc4c3-c3ccc(F)cc3OCCOC)sc2C1 [Compound 125]	A (percent of modification of PIK3CA protein ≥75%)	< 100 nM	–	–	–
C=CC(=O)N1Cc2cc(-c3nc(-c4cnn(CC(C)(C)O)c4)c4ccsc4c3-c3c(F)cc(F)cc3OC(C)C)nn2CC1C (stereo not drawn) [Compound 490]	A (percent of modification of PIK3CA protein ≥75%)	< 100 nM	–	–	–
C=CC(=O)N1CCn2nc(-c3nc(-c4ccc5c(cnn5C)c4)c4ccsc4c3-c3c(F)cc(F)cc3OC3CC(F)(F)C3)cc2C1C (stereo not drawn) [Compound 1240]	–	–	A (percent of modification of PIK3CA protein ≥75%)	–	< 100 nM
C=CC(=O)N1CCn2nc(-c3nc(-c4ccc5c(c4)C(=O)NCC5)c4ccsc4c3-c3c(F)cc(F)cc3OCCOC)cc2[C@H]1C [Compound 956]	–	< 100 nM	A (percent of modification of PIK3CA protein ≥75%)	–	–
C=CC(=O)N1CCn2nc(-c3nc(-c4ccc(OCC5CN(C)C5)nc4)c4ccsc4c3-c3c(F)cc(F)cc3OCCOC)cc2C1C (stereo not drawn) [Compound 1201]	–	–	A (percent of modification of PIK3CA protein ≥75%)	–	< 100 nM
C=CC(=O)N1CCn2nc(-c3nc(-c4cncc(CCN(C)C)c4)c4ccsc4c3-c3c(F)cc(F)cc3OCCOC)cc2C1C (stereo not drawn) [Compound 1245]	–	–	A (percent of modification of PIK3CA protein ≥75%)	–	< 100 nM
C=C(F)C(=O)N1Cc2cc(-c3nc(-c4ccc5c(c4)CCN(C)C5)c4ccsc4c3-c3c(F)cc(F)cc3OC(C)C)nn2CC1C (single isomer, unassigned) [Compound 501]	D (percent of modification <25%)	100 to 1000 nM	–	–	–

Compound	% of modification [1, 2]	IC50 (pAKT in BT474 cells; Compounds 10-999)	% of modification [1, 3]	IC50 (pAKT in BT474 cells; [4])	IC50 (pAKT in BT474 cells; Compounds 1000-1279)
C=CC(=O)N1Cc2cc(-c3nc(-c4ccc5c(c4)CCN(C)C5)c4ccsc4c3-c3c(F)cc(F)cc3OC(CF)CF)nn2C[C@H]1C [Compound 634, 1-[(6R)-2-[7-[2,4-difluoro-6-[2-fluoro-1-(fluoromethyl)ethoxy]phenyl]-4-(2-methyl-3,4-dihydro-1H-isoquinolin-6-yl)thieno[3,2-c]pyridin-6-yl]-6-methyl-6,7-dihydro-4H-pyrazolo[1,5-a]pyrazin-5-yl]prop-2-en-1-one]	A (percent of modification of PIK3CA protein ≥75%)	–	–	< 100 nM	–
C=CC(=O)N1CCc2ncc(-c3nc(-c4cnn(C)c4)c4ccsc4c3-c3c(F)cc(F)cc3OC(C)C)cc2C1 [Compound 324]	A (percent of modification of PIK3CA protein ≥75%)	< 100 nM	–	–	–
C=CC(=O)N1Cc2cc(-c3nc(-c4cnn(C)c4)c4ccsc4c3-c3c(F)cc(F)cc3OCCO)nn2[C@@H](C)C1 [Compound 519]	A (percent of modification of PIK3CA protein ≥75%)	< 100 nM	–	–	–
COCCOc1cc(F)cc(F)c1-c1c(-c2cc3n(n2)CCN(C#N)C3C)nc(-c2ccc3c(cnn3C)c2)c2ccsc12 (stereo not drawn) [Compound 1233]	–	–	D (percent of modification <25%)	–	100 to 1000 nM
COCCOc1cc(F)cc(F)c1-c1c(-c2cc3n(n2)CCN(C(=O)C=CCN(C)C)C3C)nc(-c2ccc3c(cnn3C)c2)c2ccsc12 (stereo not drawn) [Compound 1232]	–	–	A (percent of modification of PIK3CA protein ≥75%)	–	< 100 nM
C=CC(=O)N1CCn2nc(-c3nc(-c4ccc5c(c4)CCN(C)C5=O)c4ccsc4c3-c3c(F)cc(F)cc3OCCO)cc2C1C (stereo not drawn) [Compound 995]	–	< 100 nM	A (percent of modification of PIK3CA protein ≥75%)	–	–
C=CC(=O)N1CCc2nc(-c3nc(-c4ccc(=O)n(C(F)F)c4)c4ccsc4c3-c3c(F)cc(F)cc3OC(C)C)sc2C1 [Compound 347]	A (percent of modification of PIK3CA protein ≥75%)	100 to 1000 nM	–	–	–
C=CC(=O)N1CCn2nc(-c3nc(-c4ccc5cn(C)nc5c4)c4ccsc4c3-c3c(F)cc(F)cc3OCCOC)cc2C1C (stereo not drawn) [Compound 766]	A (percent of modification of PIK3CA protein ≥75%)	< 100 nM	–	–	–
C=CC(=O)N1CCn2nc(-c3nc(-c4ccc5ncn(C)c(=O)c5c4)c4ccsc4c3-c3c(F)cc(F)cc3OCCOC)cc2C1C (stereo not drawn) [Compound 915]	–	< 100 nM	A (percent of modification of PIK3CA protein ≥75%)	–	–
C=CC(=O)N1CCn2nc(-c3nc(-c4cnn(C)c4)c4ccsc4c3-c3ccc(F)cc3OCCOC)nc2C1 [Compound 191]	A (percent of modification of PIK3CA protein ≥75%)	< 100 nM	–	–	–
C=CC(=O)N1CC(n2cc(-c3nc(N4CCC5(CC4)CNC(=O)C5)c4ccsc4c3-c3ccc(F)cc3OCCOC)cn2)C1 [Compound 150]	A (percent of modification of PIK3CA protein ≥75%)	100 to 1000 nM	–	–	–
C=C(F)C(=O)N1CCn2nc(-c3nc(-c4ccc5c(c4)CCN(C)C5)c4ccsc4c3-c3ccc(F)cc3OCC(F)F)cc2C1 [Compound 325]	B (50%<percent of modification <75%)	100 to 1000 nM	–	–	–
C=CC(=O)N1Cc2cc(-c3nc(-c4cn(C)cn4)c4ccsc4c3-c3c(F)cc(F)cc3OC)nn2C[C@H]1C [Compound 843]	A (percent of modification of PIK3CA protein ≥75%)	< 100 nM	–	–	–
C=CC(=O)N1CC(n2cc(-c3nc(-c4ccc5c(c4)CNC5=O)c4ccsc4c3-c3ccc(F)cc3OC)cn2)C1 [Compound 282]	A (percent of modification of PIK3CA protein ≥75%)	< 100 nM	–	–	–
C=CC(=O)N1CC(n2cc(-c3nc(-c4ccc5c(c4)CCNC5)c4ccsc4c3-c3ccc(F)cc3OC)cn2)C1 [Compound 82, 1-[3-[4-[7-(4-fluoro-2-methoxy-phenyl)-4-(1,2,3,4-tetrahydroisoquinolin-6-yl)thieno[3,2-c]pyridin-6-yl]pyrazol-1-yl]azetidin-1-yl]prop-2-en-1-one]	A (percent of modification of PIK3CA protein ≥75%)	–	–	< 100 nM	–
C=CC(=O)N1CCn2nc(-c3nc(-c4ccc5cnncc5c4)c4ccsc4c3-c3c(F)cc(F)cc3OCC(C)O)cc2C1C (stereo not drawn) [Compound 678]	A (percent of modification of PIK3CA protein ≥75%)	< 100 nM	–	–	–
C=CC(=O)N1CCn2nc(-c3nc(-c4ccc5cnncc5c4)c4ccsc4c3-c3c(F)cc(F)cc3OC[C@@H](C)O)cc2[C@H]1C [Compound 895]	–	< 100 nM	A (percent of modification of PIK3CA protein ≥75%)	–	–
C=CC(=O)N1Cc2cc(-c3nc(-c4cnc5c(c4)CN(C)C5=O)c4ccsc4c3-c3c(F)cc(F)cc3OCCOC)nn2C[C@H]1C [Compound 687]	A (percent of modification of PIK3CA protein ≥75%)	< 100 nM	–	–	–
